Experimental data from patent publication US20210395239A1 (Hoffmann-La Roche Inc., priority 2018, published 2021).

Experiments:
CYP3A4 = biological target: T1, CYP3A4 (Homo sapiens, UniProt P08684); assay: CYP inhibition assay in human liver microsome, CYP3A4; assay type: in vitro ADME; conditions: human, human liver microsomes, probe midazolam 5 μM, substrate midazolam 5 μM, third value of 2C9/2D6/3A4
T1 construct: tissue BD-Gentest 452117; host or cells: human liver microsomes
Method: This is a high throughput screening assay used for assessment of reversible inhibition of CYP2C9, CYP2D6, and CYP3A4 activity of test compounds in human liver microsome (HLM) in early discovery stage.
10 mM DMSO stock solutions of test compounds were diluted in DMSO to generate 2 mM intermediate stock solution. 250 nL, of intermediate stock solution were transferred in duplicate into 3 separate 384 well microtitre plates (assay-ready plates). A mixture of HLM and each substrate was made up. 45 μL of HLM substrate mix was then transferred to each well of an assay ready plate and mixed. The negative (solvent) and positive controls (standard inhibitor for each CYP) were included in each assay ready plate. The assay ready plate was warmed to 37° C. in an incubator over 10 minutes. 5 μL pre-warmed NADPH regenerating system was added to each incubation well to start the reaction. Final incubation volume was 50 μL. The assay plate then was placed back in the 37° C. incubator. After incubation (10 minutes for CYP2D6) for 5 minutes, incubates were quenched by addition of 50 μL 100% acetonitrile containing internal standards (400 ng/mL 13C6-4′-OH-Diclofenac, 20 ng/mL D3-Dextrorphan and 20 ng/mL D4-1′OH-Midazolam). The supernatants were collected for RapidFire/MS/MS analysis.
RapidFire online solid phase extraction/sample injection system (Agilent) coupled with API4000 triple quadrupole mass spectrometer (AB Sciex) were used for sample analysis. The mobile phase composed of acetonitrile and water supplemented with 0.1% formic acid. A C4 solid phase extraction cartridge is used for sample separation. MS detection is achieved in positive ion MRM mode.
Peak areas for substrate, metabolite and internal standard are determined using the RapidFire integrator software (version 3.6.12009.12296). Peak area ratios (PAR) of metabolite and internal standard (stable-labelled metabolite) are then calculated. The measurement window for each experiment is then defined:
PAR (0% activity)=average PAR for all incubations containing concentrated inhibitor; Par (100% activity)=average PAR for all incubations containing no inhibitor (DMSO controls); % Activity (test inhibitor)=[PAR (test inhibitor)−PAR (0% activity)]/[PAR (100% activity)−PAR (0% activity)]; % Inhibition (test inhibitor)=100-% Activity (test inhibitor).

hTLR9 = biological target: T2, hTLR9 (Homo sapiens, UniProt Q9NR96); assay: HEK293-Blue-hTLR-9 cells assay (SEAP reporter, ODN2006 stimulation); assay type: cell-based; set-up: host or cells: HEK293 (HEK-Blue hTLR9); conditions: HEK293-Blue-hTLR9 cells, ODN2006, 20 hrs; read-out: HEK/hTLR9 IC50
T2 sequence (Q9NR96 26-1032): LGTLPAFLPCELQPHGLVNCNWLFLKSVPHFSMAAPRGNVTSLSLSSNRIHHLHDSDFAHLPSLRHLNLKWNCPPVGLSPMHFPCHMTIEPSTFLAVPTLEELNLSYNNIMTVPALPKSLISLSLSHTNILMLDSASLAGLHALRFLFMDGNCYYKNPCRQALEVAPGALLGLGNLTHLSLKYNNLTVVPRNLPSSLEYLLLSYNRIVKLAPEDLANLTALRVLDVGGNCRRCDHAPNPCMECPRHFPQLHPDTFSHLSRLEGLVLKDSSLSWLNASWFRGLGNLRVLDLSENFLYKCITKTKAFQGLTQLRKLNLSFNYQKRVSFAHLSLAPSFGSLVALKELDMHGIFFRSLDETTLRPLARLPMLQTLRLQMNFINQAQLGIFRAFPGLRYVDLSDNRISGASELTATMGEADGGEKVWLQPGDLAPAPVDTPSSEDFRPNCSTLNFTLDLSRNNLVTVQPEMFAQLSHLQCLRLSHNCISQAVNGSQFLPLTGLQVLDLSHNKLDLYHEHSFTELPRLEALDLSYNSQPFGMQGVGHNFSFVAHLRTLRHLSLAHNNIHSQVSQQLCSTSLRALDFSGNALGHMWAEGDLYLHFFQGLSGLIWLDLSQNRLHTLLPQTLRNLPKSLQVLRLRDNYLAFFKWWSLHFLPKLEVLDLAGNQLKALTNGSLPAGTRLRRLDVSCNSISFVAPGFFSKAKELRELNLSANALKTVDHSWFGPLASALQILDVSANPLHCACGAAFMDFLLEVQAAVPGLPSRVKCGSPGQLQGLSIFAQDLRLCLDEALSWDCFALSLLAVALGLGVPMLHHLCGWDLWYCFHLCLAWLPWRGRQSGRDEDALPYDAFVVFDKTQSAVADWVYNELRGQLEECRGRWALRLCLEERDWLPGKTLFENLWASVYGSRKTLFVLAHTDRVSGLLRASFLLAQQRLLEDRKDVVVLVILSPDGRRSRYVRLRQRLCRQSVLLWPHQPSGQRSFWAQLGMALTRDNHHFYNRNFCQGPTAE
Procedure, shortened: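 HEK293-Blue-hTLR9 cells with NF-κB/AP-1-driven SEAP reporter treated with serially diluted compound (1% DMSO final) plus ODN2006 for 20 h at 37 °C. Supernatant SEAP measured with QUANTI-Blue, 2 h at 37 °C, absorbance 620–655 nm; antagonism seen as reduced reporter signal.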

T1 sequence (P08684 whole entry): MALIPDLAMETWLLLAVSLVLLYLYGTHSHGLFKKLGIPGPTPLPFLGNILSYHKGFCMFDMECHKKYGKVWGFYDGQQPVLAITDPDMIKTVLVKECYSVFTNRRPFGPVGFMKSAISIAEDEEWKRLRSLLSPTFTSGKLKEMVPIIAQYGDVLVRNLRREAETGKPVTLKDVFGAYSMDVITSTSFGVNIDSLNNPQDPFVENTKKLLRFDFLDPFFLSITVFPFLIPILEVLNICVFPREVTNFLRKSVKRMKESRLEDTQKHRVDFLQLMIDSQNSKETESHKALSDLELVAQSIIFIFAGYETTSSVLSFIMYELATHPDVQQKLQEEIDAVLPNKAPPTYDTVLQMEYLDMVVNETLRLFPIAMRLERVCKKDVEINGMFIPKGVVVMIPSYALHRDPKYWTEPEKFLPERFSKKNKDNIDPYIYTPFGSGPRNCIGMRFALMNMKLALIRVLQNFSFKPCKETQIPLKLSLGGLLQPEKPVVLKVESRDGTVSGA

Structure (SMILES)	inhibition at 5 min, 10 µM (CYP3A4) [%]	IC50 (hTLR9) [µM]
[2H]c1ccc2c(N3C[C@H](CN4CCN(c5ccc(N6C[C@@H](N)[C@H](OC)C6)nc5)CC4)O[C@H](C)C3)ccc(C#N)c2n1 [Example 143, 5-[(2S,6R)-2-[[4-[6-[(3R,4R)-3-amino-4-methoxy-pyrrolidin-1-yl]-3-pyridyl]piperazin-1-yl]methyl]-6-methyl-morpholin-4-yl]-2-deuterio-quinoline-8-carbonitrile]	18	0.047
[2H]c1ccc2c(N3C[C@H](CN4CCN(c5ccc(N6CC7(CNCCO7)C6)nc5)CC4)O[C@H](C)C3)ccc(C#N)c2n1 [Example 152, 2-deuterio-5-[(2R,6S)-2-methyl-6-[[4-[6-(5-oxa-2,8-diazaspiro[3.5]nonan-2-yl)-3-pyridyl]piperazin-1-yl]methyl]morpholin-4-yl]quinoline-8-carbonitrile]	35	0.099
C[C@@H]1CN(c2ccc(C#N)n3ncc(F)c23)C[C@H](CN2CCN(c3ccc(N4CC(C)(N)C4)nc3)CC2)O1 [Example 154, 4-[(2S,6R)-2-[[4-[6-(3-amino-3-methyl-azetidin-1-yl)-3-pyridyl]piperazin-1-yl]methyl]-6-methyl-morpholin-4-yl]-3-fluoro-pyrazolo[1,5-a]pyridine-7-carbonitrile]	10.5	0.112
C[C@@H]1CN(c2ccc(C#N)n3ncc(F)c23)C[C@H](CN2CC(c3ccc(N4CC(C)(N)C4)nc3)C2)O1 [Example 158, 4-[(2S,6R)-2-[[3-[6-(3-amino-3-methyl-azetidin-1-yl)-3-pyridyl]azetidin-1-yl]methyl]-6-methyl-morpholin-4-yl]-3-fluoro-pyrazolo[1,5-a]pyridine-7-carbonitrile]	-0.5	0.041
C[C@@H]1CN(c2ccc(C#N)n3ncc(F)c23)C[C@H](CN2CC(c3ccc(N4CC(C)(N)C4)cc3)C2)O1 [Example 160, 4-[(2S,6R)-2-[[3-[4-(3-amino-3-methyl-azetidin-1-yl)phenyl]azetidin-1-yl]methyl]-6-methyl-morpholin-4-yl]-3-fluoro-pyrazolo[1,5-a]pyridine-7-carbonitrile]	4.5	0.163
[2H]c1ccc2c(N3C[C@H](CN4CCN(c5ccc(N[C@H]6CNC[C@H]6F)nc5)CC4)O[C@H](C)C3)ccc(C#N)c2n1 [Example 162, 2-deuterio-5-[(2S,6R)-2-[[4-[6-[[(3S,4R)-4-fluoropyrrolidin-3-yl]amino]-3-pyridyl]piperazin-1-yl]methyl]-6-methyl-morpholin-4-yl]quinoline-8-carbonitrile]	42.5	0.036
C[C@@H]1CN(c2ccc(C#N)n3nccc23)C[C@H](CN2CC(c3ccc(N4CC(C)(N)C4)cc3)C2)O1 [Example 163, 4-[(2S,6R)-2-[[3-[4-(3-amino-3-methyl-azetidin-1-yl)phenyl]azetidin-1-yl]methyl]-6-methyl-morpholin-4-yl]pyrazolo[1,5-a]pyridine-7-carbonitrile]	0.5	0.101
CO[C@@H]1CN(c2ccc(C3CN(C[C@H]4CN(c5ccc(C#N)n6ncc(F)c56)C[C@@H](C)O4)C3)cn2)C[C@H]1N [Example 164, 4-[(2S,6R)-2-[[3-[6-[(3R,4R)-3-amino-4-methoxy-pyrrolidin-1-yl]-3-pyridyl]azetidin-1-yl]methyl]-6-methyl-morpholin-4-yl]-3-fluoro-pyrazolo[1,5-a]pyridine-7-carbonitrile]	30.5	0.086
C[C@@H]1CN(c2ccc(C#N)n3ncc(F)c23)C[C@H](CN2CC(c3ccc(N4C[C@@H]5C[C@H]4CN5)nc3)C2)O1 [Example 165, 4-[(2S,6R)-2-[[3-[6-[(1S,4S)-2,5-diazabicyclo[2.2.1]heptan-2-yl]-3-pyridyl]azetidin-1-yl]methyl]-6-methyl-morpholin-4-yl]-3-fluoro-pyrazolo[1,5-a]pyridine-7-carbonitrile]	9	0.108
CO[C@@H]1CN(c2ccc(N3CCN(C[C@H]4CN(c5ccc(C#N)n6ncc(F)c56)C[C@@H](C)O4)CC3)cn2)C[C@H]1N [Example 166, 4-[(2S,6R)-2-[[4-[6-[(3R,4R)-3-amino-4-methoxy-pyrrolidin-1-yl]-3-pyridyl]piperazin-1-yl]methyl]-6-methyl-morpholin-4-yl]-3-fluoro-pyrazolo[1,5-a]pyridine-7-carbonitrile]	35.5	0.046
